Test results taken from patent US20070167499A1, “Biaryl linked hydroxamates: preparation and pharmaceutical applications” (A*BIO Pte Ltd., priority 2003, published 2007).

Tests used:
HDAC8 enzyme (GST-HDAC8) = biological target: T1, HDAC8 enzyme (GST-HDAC8) (Homo sapiens, UniProt Q9BY41); experiment: In vitro HDAC assay for determination of IC50 values (BIOMOL fluorescent-based HDAC activity assay), HDAC8; format: biochemical; details: 500 nM HDAC8 enzyme, 200 μM Flur de lys p53 peptide substrate, room temperature 2 h; read-out: HDAC8 Enzyme Activity, IC50
T1 construct: Amplification of human HDAC1 and HDAC8 coding region from this cDNA library; made in house; host or cells: SF9 insect cells (baculovirus, pFASTBAC vector)
T1 sequence (Q9BY41 1-377): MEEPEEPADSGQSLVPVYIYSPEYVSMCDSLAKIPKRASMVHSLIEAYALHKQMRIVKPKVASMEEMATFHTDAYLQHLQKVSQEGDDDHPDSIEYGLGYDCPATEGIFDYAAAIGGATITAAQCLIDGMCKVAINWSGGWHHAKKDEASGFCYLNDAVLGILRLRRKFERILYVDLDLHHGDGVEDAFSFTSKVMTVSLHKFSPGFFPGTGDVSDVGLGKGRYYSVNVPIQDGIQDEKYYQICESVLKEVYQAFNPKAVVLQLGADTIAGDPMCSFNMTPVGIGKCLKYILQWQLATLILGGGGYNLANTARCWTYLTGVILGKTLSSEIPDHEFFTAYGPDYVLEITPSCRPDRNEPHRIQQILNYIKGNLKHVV
Protocol: (§1) Recombinant GST-HDAC1 and GST-HDAC-8 Protein expression and purification
Human cDNA library was prepared using cultured SW620 cells. Amplification of human HDAC1 and HDAC8 coding region from this cDNA library was cloned separately into the baculovirus expression pDEST20 vector and pFASTBAC vector respectively (GATEWAY Cloning Technology, Invitrogen Pte Ltd). […] Recombinant baculovirus was prepared using the Bac-To-Bac method following the manufacturer's instruction (Invitrogen Pte Ltd).
(§2) Expression of GST-HDAC1 or HTGST-HDAC8 was done by infecting SF9 cells (Invitrogen Pte Ltd) with pDEST20-HDAC1 or pFASTBAC-GST-HDAC8 baculovirus at MOI=1 for 48 h. Soluble cell lysate was incubated with pre-equilibrated Glutathione Sepharose 4B beads (Amersham) at 4° C. for 2 h. The beads were washed with PBS buffer for 3 times. The GST-HDAC1 protein or GST-HDAC8 protein was eluted by elution buffer containing 50 mM Tris, pH8.0, 150 mM NaCl, 1% Triton X-100 and 10 mM or 20 mM reduced Glutathione. The purified GST-HDAC1 protein or purified GST-HDAC8 protein was dialyzed with HDAC storage buffer containing 10 mM Tris, pH7.5, 100 mM NaCl and 3 mM MgCl2. 20% Glycerol was added to purified GST-HDAC1 protein or purified GST-HDAC8 before storage at −80° C.
(§3) In vitro HDAC assay for determination of IC50 values
The assay has been carried out in 96 well format and the BIOMOL fluorescent-based HDAC activity assay has been applied. […] Flur de lys Developer was added and the reaction was incubated for 10 min. Briefly, deacetylation of the substrate sensitizes it to the developer, which then generates a fluorophore The fluorophore is excited with 360 nm light and the emitted light (460 nm) is detected on a fluorometric plate reader (Tecan Ultra Microplate detection system, Tecan Group Ltd.).
(§4) The analytical software, Prism 3.0® (GraphPad Software Inc) has been used to generate IC50 from a series of data.

[1] = system: acetylated H4 in Colo205 cells; experiment: Histone H4 acetylation assay (western-blot); format: cell-based, human; parameters: key: “Active” means accumulation of acetylated histone was observed when compared with control (without compound); details: Colo205 cells, 0.1, 1, 5 and 10 μM, after 24 h
Protocol: (§5) Histone H3, H4 and H2A acetylation assay
(§6) A hallmark of histone deacetylase (HDAC) inhibition is the increase in the acetylation level of histones. Histone acetylation, including H3, H4 and H2A can be detected by immuno-blotting (western-blot). Colo205 cells, approximately 1.5×10^6 cells/10 cm dish, were seeded in the previously described medium, cultivated for 24 h and subsequently treated with HDAC inhibitory agents at 0.1, 1, 5 and 10 μM final concentration. After 24 h, cells were harvested and lysed according to the instruction from Sigma Mammalian Cell Lysis Kit. The protein concentration was quantified using BCA method (Sigma Pte Ltd). The protein lysate was separated using 4-12% bis-tris SDS-PAGE gel (Invitrogen Pte Ltd) and was transferred onto PVDF membrane (BioRad Pte Ltd). The membrane was probed separately using primary antibody specific for acetylated H3, acetylated H4 or acetylated H2A (Upstate Pte Ltd). The detection antibody, goat anti rabbit antibody conjugated with horse radish peroxidase (HRP) was used according to the manufacturing instruction (Pierce Pte Ltd). After removing the detection antibody from the membrane, an enhanced chemiluminescent substrate for detection of HRP (Pierce Pte Ltd) was added onto the membrane. After removing the substrate, the membrane was exposed to an X-ray film (Kodak) for 1 sec-20 mins. The X-ray film was developed using the X-ray film processor. The density of each band observed on the developed film could be analysed using UVP Bioimaging software (UVP, Inc, Upland, Calif.). The values were then normalized against the density of actin in the corresponding samples to obtain the expression of the protein.

[2] = system: acetylated H3 in Colo205 cells; experiment: Histone H3 acetylation assay (western-blot); format: cell-based, human; parameters: key: “Active” means accumulation of acetylated histone was observed when compared with control (without compound); details: Colo205 cells, 0.1, 1, 5 and 10 μM, after 24 h
Protocol: as §5
as §6, with “After 24 h, cells were harvested and lysed according to the instruction from Sigma Mammalian Cell Lysis Kit.” left out

HDAC1 enzyme (GST-HDAC1) = biological target: T2, HDAC1 enzyme (GST-HDAC1) (Homo sapiens, UniProt Q13547); experiment: In vitro HDAC assay for determination of IC50 values (BIOMOL fluorescent-based HDAC activity assay), HDAC1; format: biochemical; details: 600 nM HDAC1 enzyme, 500 μM Flur de lys generic substrate, room temperature 2 h
T2 construct: Amplification of human HDAC1 and HDAC8 coding region from this cDNA library; made in house; host or cells: SF9 insect cells (baculovirus, pDEST20 vector)
T2 sequence (Q13547 whole entry): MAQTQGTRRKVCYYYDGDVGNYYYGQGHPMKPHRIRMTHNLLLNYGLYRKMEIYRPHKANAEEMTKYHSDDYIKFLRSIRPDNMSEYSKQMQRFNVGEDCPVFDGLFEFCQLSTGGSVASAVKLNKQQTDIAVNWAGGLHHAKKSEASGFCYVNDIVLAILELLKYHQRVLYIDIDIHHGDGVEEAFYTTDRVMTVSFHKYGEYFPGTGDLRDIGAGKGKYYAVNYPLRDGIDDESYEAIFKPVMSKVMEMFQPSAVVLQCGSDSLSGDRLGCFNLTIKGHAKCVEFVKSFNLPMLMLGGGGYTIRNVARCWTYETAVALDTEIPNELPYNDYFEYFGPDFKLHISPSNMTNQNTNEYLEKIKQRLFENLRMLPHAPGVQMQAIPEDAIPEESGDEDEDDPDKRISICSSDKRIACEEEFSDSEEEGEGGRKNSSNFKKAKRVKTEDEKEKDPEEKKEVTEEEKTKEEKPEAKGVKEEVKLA
Protocol: as §1
Human cDNA library was prepared using cultured SW620 cells. Amplification of human HDAC1 and HDAC8 coding region from this cDNA library was cloned separately into the baculovirus expression pDEST20 vector and pFASTBAC vector respectively (GATEWAY Cloning Technology, Invitrogen Pte Ltd). The pDEST20-HDAC1 and pFASTBAC-HTGST-HDAC8 constructs were confirmed by DNA sequencing. Recombinant baculovirus was prepared using the Bac-To-Bac method following the manufacturer's instruction (Invitrogen Pte Ltd). Baculovirus titer was determined by plaque assay to be about 10^8 PFU/ml.
as §2, §3
The assay has been carried out in 96 well format and the BIOMOL fluorescent-based HDAC activity assay has been applied. The reaction composed of assay buffer, containing 25 mM Tris pH 7.5, 137 mM NaCl, 2.7 mM KCl, 1 mM MgCl2, 1 mg/ml BSA, tested compounds, 500 nM HDAC8 enzyme or 600 nM HDAC1 enzyme, 200 μM Flur de lys p53 peptide substrate for HDAC8 enzyme or 500 μM Flur de lys generic substrate for HDAC1 enzyme and subsequently was incubated at room temperature for 2 h. Flur de lys Developer was added and the reaction was incubated for 10 min. Briefly, deacetylation of the substrate sensitizes it to the developer, which then generates a fluorophore The fluorophore is excited with 360 nm light and the emitted light (460 nm) is detected on a fluorometric plate reader (Tecan Ultra Microplate detection system, Tecan Group Ltd.).
as §4

[3] = system: Ramos Burkitt-lymphoma cells; experiment: Apoptosis assay (Annexin V / PI flow cytometry); format: cell-based, human; details: 48 h after treatment with 10 μM
Description: In various therapies such as for proliferative disorders like cancer, the selective induction of apoptosis in proliferating cells such as tumor cells is one of the desirable approaches, and can be mediated by treatment with various anti-proliferative compounds [Blagosklonny MV, Oncogene, 23(16): 2967 (2004); Kaufmann and Eamshaw, Exp Cell Res. 256(1): 42-9 (2000)]. Programmed cell death or apoptosis is the cellular response to stress factors such as DNA damage introduced during conventional anti-cancer treatment. The concerted sequence of events during apoptosis, clearly differentiate this pathway from a non-coordinated form of cell death called necrosis. During the course of apoptosis, characteristic phenotypical cellular changes occur, which include the condensation of chromatin, the shrinkage of cells and finally the fragmentation of chromosomal DNA. One of the very early change caused by apoptotic events occurs in the phospholipids bilayer of the plasma membrane. The phospholipid phosphatidylserine is translocated from the inner to the outer side of the plasma-membrane and, as a result, is exposed to the extracellular space. One way of detecting early apoptotic cells is to determine the amount of phosphatidyl-serine at the extracellular side of the plasma-membrane which is accomplished by the standard flow cytometric method of Annexin V staining. The phospholipids recognizing protein Annexin V binds with high affinity to these inverted and exposed phosphatidyl-serines.
The ability of the compounds in this invention to induce apoptosis was tested in Ramos Burkitt-lymphoma cells. This cell line is one of the gold standard cell lines commonly used as a tissue culture model for B cell lymphoma. Representative compounds as indicated below were added to 80,000 cells per 500 μl growth medium (RPMI1640 medium supplemented with 2 mM L-Glutamine, 10% heat-inactivated FBS, 1 mM Na-Pyruvate and 10 mM HEPES) in 24 well format at various concentrations. Two days after the start of treatment, cells were collected and subjected to the Annexin V staining protocol following the instructions of the manufacturer (BD Biosciences). By using propidium iodide (PI) as a viability control, cells that stain positive for Annexin V, but negative for PI, are undergoing apoptosis.

| Structure (SMILES) | IC50 (HDAC8 enzyme (GST-HDAC8)) | IC50 (HDAC1 enzyme (GST-HDAC1)) | Histone 4 acetylation [1] | Histone 3 acetylation [2] | % cells in late apoptosis (Ramos) [3] |
| --- | --- | --- | --- | --- | --- |
| O=C(NO)c1ccc(-c2cccc(CNCCc3ccccn3)c2)s1 [Example 30] | 50 nM | 220 nM | Active | Active | – |
| O=C(NO)c1ccc(-c2ccc(NCc3ccccc3)cc2)s1 [Example 44] | 110 nM | 1420 nM | – | – | 82% |
| O=C(Nc1cccc(-c2cc(C(=O)NO)n[nH]2)c1)c1ccccc1 [Example 18, 5-(3-Benzoylamino-ihenyl)-1H-pyrazole-3-carboxylic acid hydroxyamide] | 350 nM | > 100000 nM | – | – | – |
| O=C(NO)c1ccc(-c2csc(NS(=O)(=O)c3ccccc3)n2)s1 [Example 15, 5-(2-Benzenesulfonylamino-thiazol-4-yl)-thiophene-2-carboxylic acid hydroxyamide] | 290 nM | 1130 nM | – | – | – |
| Cc1nc(C2CCCNC2)sc1C(=O)Nc1nc(-c2ccc(CC(=O)NO)s2)cs1 (stereo not drawn) [Example 6] | 40 nM | 2780 nM | – | – | – |
| O=C(Cc1ccccc1)Nc1nc(-c2cc(C(=O)NO)no2)cs1 [Example 17, 5-(2-Phenylacetylamino-thiazol-4-yl)-isoxazole-3-carboxylic acid hydroxyamide] | 340 nM | 1400 nM | – | – | – |
| O=C(Cc1ccccc1)NCc1cccc(-c2ccc(C(=O)NO)cc2)c1 [3′-(Phenylacetylamino-methyl)-biphenyl-4-carboxylic acid hydroxyamide, reference compound] | – | – | – | – | 89% |
| O=C(Cc1ccc(-c2csc(NC(=O)c3ccc(N4CCNCC4)cc3)n2)s1)NO [Example 8] | 89 nM | 2760 nM | – | – | 74% |
| O=C(Cc1ccc(-c2csc(NC(=O)c3ccn(CC4CCNCC4)c3-c3ccccc3)n2)s1)NO [Example 10] | 140 nM | > 100000 nM | – | – | – |

Continued by falling IC50 (HDAC8 enzyme (GST-HDAC8)), values first:

| IC50 (HDAC8 enzyme (GST-HDAC8)) | IC50 (HDAC1 enzyme (GST-HDAC1)) | Structure (SMILES) | Histone 4 acetylation [1] | Histone 3 acetylation [2] | % cells in late apoptosis (Ramos) [3] |
| --- | --- | --- | --- | --- | --- |
| 38 nM | 700 nM | O=C(COc1ccccc1)Nc1nc(-c2ccc(C(=O)NO)s2)cs1 [Example 16, 5-[2-(2-Phenoxy-acetamino)-thiazol-4-yl]-thiophene-2-carboxylic acid hydroxyamide] | – | – | 90% |
| 26 nM | 87 nM | O=C(NO)c1ccc(-c2cccc(CNCCc3ccccc3)c2)s1 [Example 29] | – | – | – |
| 14 nM | 15 nM | O=C(NO)c1ccc(-c2ccc(CNCCc3c[nH]c4ccccc34)cc2)s1 [Example 28] | – | – | – |
| 8 nM | 17 nM | O=C(NO)c1ccc(-c2cccc(CNCCc3c[nH]c4ccccc34)c2)s1 [Example 31] | – | – | – |
